Results published in patent publication US8853246B2 (Dow AgroSciences LLC, priority 2009, dated 2014).
Where two headings read alike, the source gives them in different places.

Legend:
[1] = test system: Green Peach Aphid (Myzus Persicae); assay: Insecticidal test for green peach aphid in foliar spray assay (col. MYZUPE); type: in vivo; settings: for pest or weed control at 200 ppm: Myzus persicae, 72 h, read-out: MYZUPE 200 ppm (Corrected % Control, rating)
Procedure, shortened: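 Corrected % control derives from microscope counts of live aphids per plant, treated against diluent-only checks, 3 days after foliar spraying at ~25 °C and 40% RH. Test solution was 200 ppm in 0.025% aqueous Tween 20, applied to both leaf sides of infested cabbage seedlings, four pots each.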

[2] = test system: Sweetpotato Whitefly-Crawler (Bemisia Tabaci); assay: Insecticidal test for sweetpotato whitefly-crawler in foliar spray assay (col. BEMITA); type: in vivo; settings: for pest or weed control at 200 ppm: Bemisia tabaci, read-out: BEMITA 200 ppm (Corrected % Control, rating)
Procedure, shortened: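 Percent control, Abbott-corrected against diluent-sprayed plants, from microscope counts of live nymphs 8-9 days after treatment. Test solution at 200 ppm in 0.025% aqueous Tween 20 applied to both leaf sides of egg-infested cotton after a 5-6 day hatch period (82° F, 50% RH).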

| SMILES | pest or weed control at 200 ppm ([1]; green peach aphid) [%] | pest or weed control at 200 ppm ([2]; sweetpotato whitefly-crawler) [%] | pest or weed control at 200 ppm ([1]; Abbott's correction formula) [%] | pest or weed control at 200 ppm ([2]; Abbott's correction formula) [%] | other results |
| --- | --- | --- | --- | --- | --- |
| CC(C)(C)OC(=O)Nc1sc(-c2cncc(F)c2)nc1F [Compound 353, [4-fluoro-2-(5-fluoro-pyridin-3-yl)-thiazol-5-yl]-carbamic acid tert-butyl ester] | < 80 | 80 to 100 | – | – | – |
| CSCC(C)C(=O)N(C)c1sc(-c2cncc(F)c2)nc1Br (stereo not drawn) [Compound 354] | 80 to 100 | 80 to 100 | – | – | – |
| CSC(C)C(=O)N(C(=O)OC(C)(C)C)c1sc(-c2cccnc2)nc1C (stereo not drawn) [Compound 357] | 80 to 100 | 80 to 100 | – | – | – |
| CCSCC(=O)N(C)c1sc(-c2cccnc2)nc1C [Compound 358] | 80 to 100 | 80 to 100 | – | – | – |
| CSC(C)C(=O)N(C)c1sc(-c2cccnc2)nc1C (stereo not drawn) [Compound 360] | 80 to 100 | < 80 | – | – | – |
| C=Cc1nc(-c2cncc(F)c2)sc1N(C)C(=O)OC(C)(C)C [Compound 363, [2-(5-fluoro-pyridin-3-yl)-4-vinyl-thiazol-5-yl]-methyl-carbamic acid-tert-butyl ester] | < 80 | 80 to 100 | – | – | – |
| CSCC(C)C(=O)Nc1sc(-c2cncc(F)c2)nc1Cl (stereo not drawn) [Compound 364] | 80 to 100 | 80 to 100 | – | – | – |
| Cc1nc(-c2cccnc2)sc1N(C)C(=O)c1cscn1 [Compound 365] | 80 to 100 | < 80 | – | – | – |
| CSCC(=O)N(C)c1sc(-c2cccnc2)nc1C [Compound 367] | 80 to 100 | < 80 | – | – | – |
| CSCCCC(=O)N(C)c1sc(-c2cccnc2)nc1C [Compound 368] | 80 to 100 | 80 to 100 | – | – | – |
| CSCCCC(=O)N(C)c1sc(-c2cccnc2)nc1Cl [Compound 371] | 80 to 100 | 80 to 100 | – | – | – |
| CN(C(=O)c1cccc(SC(F)F)c1)c1sc(-c2cccnc2)nc1Cl [Compound 382] | < 80 | < 80 | – | – | – |
| CCS(=O)(=O)N1CCCC(C(=O)N(C)c2sc(-c3cccnc3)nc2Cl)C1 (stereo not drawn) [Compound 394] | 80 to 100 | 80 to 100 | – | – | – |
| Cc1nc(-c2cccnc2)sc1N(C)C(=O)c1cccc(SC(F)F)c1 [Compound 397] | 80 to 100 | 80 to 100 | – | – | – |
| Cc1nc(-c2cccnc2)sc1NC(=O)c1ccoc1 [Compound 399] | 80 to 100 | 80 to 100 | – | – | – |
| CN(C(=O)c1ccoc1)c1sc(-c2cccnc2)nc1Cl [Compound 401] | – | – | – | – | MYZUPE 200 ppm (Corrected % Control, rating) ([1]; green peach aphid): A (80-100); BEMITA 200 ppm (Corrected % Control, rating) ([2]; sweetpotato whitefly-crawler): A (80-100) |
| Cc1nc(-c2cccnc2)sc1N(C)C(=O)c1ccc([S+](C)[O-])cc1 (stereo not drawn) [Compound 402] | – | – | – | – | MYZUPE 200 ppm (Corrected % Control, rating) ([1]; green peach aphid): A (80-100); BEMITA 200 ppm (Corrected % Control, rating) ([2]; sweetpotato whitefly-crawler): A (80-100) |
| CN(C(=O)c1ccc([S+](C)[O-])cc1)c1sc(-c2cccnc2)nc1Cl (stereo not drawn) [Compound 403] | – | – | – | – | MYZUPE 200 ppm (Corrected % Control, rating) ([1]; green peach aphid): A (80-100); BEMITA 200 ppm (Corrected % Control, rating) ([2]; sweetpotato whitefly-crawler): B (Less than 80) |
| Cc1nc(-c2cccnc2)sc1N(C)C(=O)c1ccc(=O)n(C)n1 [Compound 404] | – | – | – | – | MYZUPE 200 ppm (Corrected % Control, rating) ([1]; green peach aphid): A (80-100); BEMITA 200 ppm (Corrected % Control, rating) ([2]; sweetpotato whitefly-crawler): B (Less than 80) |

| SMILES | pest or weed control at 200 ppm ([1]; green peach aphid) [%] | pest or weed control at 200 ppm ([2]; sweetpotato whitefly-crawler) [%] | pest or weed control at 200 ppm ([1]; Abbott's correction formula) [%] | pest or weed control at 200 ppm ([2]; Abbott's correction formula) [%] | other results |
| --- | --- | --- | --- | --- | --- |
| CN(C(=O)c1ccc(=O)n(C)n1)c1sc(-c2cccnc2)nc1Cl [Compound 405] | – | – | – | – | MYZUPE 200 ppm (Corrected % Control, rating) ([1]; green peach aphid): A (80-100); BEMITA 200 ppm (Corrected % Control, rating) ([2]; sweetpotato whitefly-crawler): B (Less than 80) |
| Cc1cc(C(=O)Nc2sc(-c3cccnc3)nc2C)ccn1 [Compound 406] | 80 to 100 | < 80 | – | – | – |
| Cc1cc(C(=O)N(C)c2sc(-c3cccnc3)nc2Cl)ccn1 [Compound 407] | 80 to 100 | < 80 | – | – | – |
| CSCc1ccc(C(=O)Nc2sc(-c3cccnc3)nc2C)o1 [Compound 408] | 80 to 100 | 80 to 100 | – | – | – |
| CSCc1ccc(C(=O)N(C)c2sc(-c3cccnc3)nc2Cl)o1 [Compound 409] | – | – | – | – | MYZUPE 200 ppm (Corrected % Control, rating) ([1]; green peach aphid): A (80-100); BEMITA 200 ppm (Corrected % Control, rating) ([2]; sweetpotato whitefly-crawler): A (80-100) |
| Cc1nc(-c2cccnc2)sc1N(C)C(=O)C1CCCN(C(=O)C(C)C)C1 (stereo not drawn) [Compound 410] | 80 to 100 | 80 to 100 | – | – | – |
| CC(C)C(=O)N1CCCC(C(=O)N(C)c2sc(-c3cccnc3)nc2Cl)C1 (stereo not drawn) [Compound 411] | 80 to 100 | 80 to 100 | – | – | – |
| CC(=O)N1CCCC(C(=O)N(C)c2sc(-c3cccnc3)nc2C)C1 (stereo not drawn) [Compound 412] | 80 to 100 | 80 to 100 | – | – | – |
| CC(=O)N1CCCC(C(=O)N(C)c2sc(-c3cccnc3)nc2Cl)C1 (stereo not drawn) [Compound 413] | 80 to 100 | < 80 | – | – | – |
| CN(C(=O)C1CCOC1)c1sc(-c2cccnc2)nc1Cl (stereo not drawn) [Compound 415] | – | – | – | – | MYZUPE 200 ppm (Corrected % Control, rating) ([1]; green peach aphid): A (80-100); BEMITA 200 ppm (Corrected % Control, rating) ([2]; sweetpotato whitefly-crawler): A (80-100) |
| Cc1nc(-c2cccnc2)sc1NC(=O)CCC1CC1 [Compound 416] | 80 to 100 | 80 to 100 | – | – | – |
| Cc1nc(-c2cccnc2)sc1NC(=O)CC1CC1 [Compound 417] | 80 to 100 | 80 to 100 | – | – | – |
| C/C=C/CCC(=O)Nc1sc(-c2cccnc2)nc1C [Compound 418] | 80 to 100 | 80 to 100 | – | – | – |
| CCN(C(=O)OC(C)(C)C)c1sc(-c2cncc(F)c2)nc1F [Compound 423] | < 80 | 80 to 100 | – | – | – |
| CCN(C(=O)C(C)C)c1sc(-c2cncc(F)c2)nc1F [Compound 424] | 80 to 100 | 80 to 100 | – | – | – |
| CCN(C(=O)CCSC)c1sc(-c2cncc(F)c2)nc1F [Compound 425] | 80 to 100 | 80 to 100 | – | – | – |
| C=CCN(C(=O)C(C)CSC)c1sc(-c2cccnc2)nc1C (stereo not drawn) [Compound 426] | 80 to 100 | 80 to 100 | – | – | – |
| CCN(C(=O)CC[S+](C)[O-])c1sc(-c2cncc(F)c2)nc1F (stereo not drawn) [Compound 427] | – | – | 80 to 100 | 80 to 100 | – |
| Cc1nc(-c2cccnc2)sc1NC(=O)C(F)(F)C(F)(F)C(F)(F)C(F)(F)F [Compound 428] | – | – | < 80 | < 80 | – |

| SMILES | pest or weed control at 200 ppm ([1]; green peach aphid) [%] | pest or weed control at 200 ppm ([2]; sweetpotato whitefly-crawler) [%] | pest or weed control at 200 ppm ([1]; Abbott's correction formula) [%] | pest or weed control at 200 ppm ([2]; Abbott's correction formula) [%] | other results |
| --- | --- | --- | --- | --- | --- |
| Cc1nc(-c2cccnc2)sc1NC(=O)CN(C)C(=O)C(C)n1cccn1 (stereo not drawn) [Compound 429] | – | – | 80 to 100 | < 80 | – |
| Cc1nc(-c2cccnc2)sc1N(C)C(=O)CN(C)C(=O)C(C)n1cccn1 (stereo not drawn) [Compound 430] | – | – | 80 to 100 | < 80 | – |
| CC(C(=O)N(C)CC(=O)N(C)c1sc(-c2cccnc2)nc1Cl)n1cccn1 (stereo not drawn) [Compound 431] | – | – | 80 to 100 | < 80 | – |
| CN(C)CC(=O)N(C)c1sc(-c2cccnc2)nc1Cl [Compound 432] | – | – | < 80 | < 80 | – |
| Cc1nc(-c2cccnc2)sc1N(C)C(=O)CN(C)S(C)(=O)=O [Compound 433] | – | – | 80 to 100 | 80 to 100 | – |
| CN(C(=O)CN(C)S(C)(=O)=O)c1sc(-c2cccnc2)nc1Cl [Compound 434] | – | – | 80 to 100 | 80 to 100 | – |
| Cc1nc(-c2cccnc2)sc1NC(=O)CN(C)S(=O)(=O)/C=C/c1ccccc1 [Compound 435] | – | – | < 80 | < 80 | – |
| Cc1nc(-c2cccnc2)sc1N(C)C(=O)CN(C)S(=O)(=O)/C=C/c1ccccc1 [Compound 436] | – | – | < 80 | < 80 | – |
| CN(C(=O)CN(C)S(=O)(=O)/C=C/c1ccccc1)c1sc(-c2cccnc2)nc1Cl [Compound 437] | – | – | < 80 | < 80 | – |
| Cc1nc(-c2cccnc2)sc1NC(=O)CN(C)C(=O)c1cccs1 [Compound 438] | – | – | 80 to 100 | < 80 | – |
| Cc1nc(-c2cccnc2)sc1N(C)C(=O)[C@@H](C)N(C)C(=O)OCc1ccccc1 [Compound 439] | – | – | < 80 | < 80 | – |
| C[C@H](C(=O)N(C)c1sc(-c2cccnc2)nc1Cl)N(C)C(=O)OCc1ccccc1 [Compound 440] | – | – | < 80 | < 80 | – |
| CSCCC(=O)N(C)c1sc(-c2cncc(F)c2)nc1Br [Compound 441] | – | – | 80 to 100 | 80 to 100 | – |
| CSC(C)CC(=O)N(C)c1sc(-c2cncc(F)c2)nc1Cl (stereo not drawn) [Compound 442] | – | – | 80 to 100 | 80 to 100 | – |
| CSC(C)(C)CC(=O)N(C)c1sc(-c2cncc(F)c2)nc1Cl [Compound 443] | – | – | 80 to 100 | 80 to 100 | – |
| CSC(C)C(C)C(=O)N(C)c1sc(-c2cncc(F)c2)nc1Cl (stereo not drawn) [Compound 444] | – | – | 80 to 100 | 80 to 100 | – |
| CCN(C(=O)CC(C)SC)c1sc(-c2cncc(F)c2)nc1Cl (stereo not drawn) [Compound 446] | – | – | 80 to 100 | 80 to 100 | – |
| CCN(C(=O)CC(C)(C)SC)c1sc(-c2cncc(F)c2)nc1Cl [Compound 447] | – | – | 80 to 100 | 80 to 100 | – |
| CSCCNC(=S)Nc1sc(-c2cncc(F)c2)nc1Cl [Compound 450] | – | – | 80 to 100 | 80 to 100 | – |
